Values quoted from earlier work, collected in US10307432B2, “Stabilized liquid fosaprepitant formulations” (Cipla Limited, priority 2015, dated 2019).

What was measured:
[1] = after an IV infusion
[2] = tested on: serotonin, dopamine or corticosteroid receptors

| SMILES | time of conversion to aprepitant [1] | affinity for serotonin, dopamine or corticosteroid receptors [2] |
| --- | --- | --- |
| C[C@@H](O[C@H]1OCCN(Cc2nc(O)n(P(=O)(O)O)n2)[C@H]1c1ccc(F)cc1)c1cc(C(F)(F)F)cc(C(F)(F)F)c1 [Fosaprepitant] | less than 30 minutes |  |
| C[C@@H](O[C@H]1OCCN(Cc2n[nH]c(=O)[nH]2)[C@H]1c1ccc(F)cc1)c1cc(C(F)(F)F)cc(C(F)(F)F)c1 [Aprepitant] |  | little or no affinity |
